Source: patent publication US11827628B2, “Compositions and methods for inhibition of the JAK pathway” (Rigel Pharmaceuticals, Inc., priority 2005, dated 2023)
Where two headings read alike, the source gives them in different places.

Columns and labels:
Primary human T-cells = assay: Primary Human T-Cell Proliferation Assay Stimulated with IL-2 (CellTiter-Glo); type: cell-based; details: read-out: IC50, Example 42
How it was run: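 IC50 derived from CellTiter-Glo ATP signal after 72 hours of IL-2-driven proliferation at 37° C. Cells: primary human T-cells from blood, stimulated beforehand 3-4 days on anti-CD3/anti-CD28 with IL-2, then rested from IL-2 before compound exposure in duplicate; IL-2-free wells served as unstimulated control.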

[1] = test system: IL-4 stimulated expression of CD23 in human Ramos B cells (JAK-1 and JAK-3); assay: Assay for Ramos B-Cell Line Stimulated with IL-4 (CD23 upregulation, FACS); type: cell-based; details: read-out: IC50, Example 41
How it was run: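 Read-out: anti-CD23-PE flow cytometry on Ramos B cells, giving IC50. Cells (5×10^4 per point, RPMI + 5% serum) get compound or DMSO for 1 h at 37 °C, then IL-4 50 units/mL final for 20-24 h.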

[2] = Homo sapiens, T-cell, primary human T-cell proliferation stimulated with IL-2
[3] = Homo sapiens, Ramos, Ramos B-cell line stimulated with IL-4, CD23 expression by FACS

SMILES | IC50 (Primary human T-cells; [2]) | IC50 [1, 3] | IC50 (Primary human T-cells; primary human T-cells stimulated with IL-2, proliferation) | IC50 ([1]; Ramos B cells stimulated with IL-4, CD23 expression by FACS)
NC(=O)COc1ccc(Nc2nc(Nc3ccc(S(N)(=O)=O)cc3)ncc2F)cc1Cl [Compound I-97, N4-(4-Aminocarbonylmethoxy-3-chlorophenyl)-N2-(4-aminosulfonylphenyl)-5-fluoro-2,4-pyrimidinediamine] | 869 nM | 212 nM |  | 
Cc1ccc(Nc2ncc(F)c(Nc3ccc(OCC(N)=O)c(Cl)c3)n2)cc1S(N)(=O)=O [Compound I-99, N4-(4-Aminocarbonylmethoxy-3-chlorophenyl)-N2-(3-aminosulfonyl-4-methylphenyl)-5-fluoro-2,4-pyrimidinediamine] | 148 nM | 68.6 nM |  | 
Cc1ccc(Nc2ncc(F)c(Nc3ccc(OCC(N)=O)c(F)c3)n2)cc1S(N)(=O)=O [Compound I-102, N4-(4-Aminocarbonylmethoxy-3-fluorophenyl)-N2-(3-aminosulfonyl-4-methylphenyl)-5-fluoro-2,4-pyrimidinediamine] | 211 nM | 219 nM |  | 
Cc1cnc(Nc2ccc(S(N)(=O)=O)cc2)nc1Nc1ccc(OCC(N)=O)cc1 [Compound I-108, N4-(4-Aminocarbonylmethoxyphenyl)-N2-(4-aminosulfonylphenyl)-5-methyl-2,4-pyrimidinediamine] | 148 nM | 145 nM |  | 
Cc1cnc(Nc2cccc(S(N)(=O)=O)c2)nc1Nc1ccc(OCC(N)=O)cc1 [Compound I-109, N4-(4-Aminocarbonylmethoxyphenyl)-N2-(3-aminosulfonylphenyl)-5-methyl-2,4-pyrimidinediamine] | 203 nM | 305 nM |  | 
Cc1ccc(Nc2ncc(C)c(Nc3ccc(OCC(N)=O)cc3)n2)cc1S(N)(=O)=O [Compound I-110, N4-(4-Aminocarbonylmethoxyphenyl)-N2-(3-aminosulfonyl-4-methylphenyl)-5-methyl-2,4-pyrimidinediamine] | 253 nM | 358 nM |  | 
CN(C)C(=O)COc1ccc(Nc2nc(Nc3ccc(S(N)(=O)=O)cc3)ncc2F)cc1Cl [Compound I-131, N2-(4-Aminosulfonylphenyl)-N4-(3-chloro-4-dimethylaminocarbonylmethoxyphenyl)-5-fluoro-2,4-pyrimidinediamine] | 3780 nM | 262 nM |  | 
CN(C)C(=O)COc1ccc(Nc2nc(Nc3cccc(S(N)(=O)=O)c3)ncc2F)cc1Cl [Compound I-132, N2-(3-Aminosulfonylphenyl)-N4-(3-chloro-4-dimethylaminocarbonylmethoxyphenyl)-5-fluoro-2,4-pyrimidinediamine] | 464 nM | 351 nM |  | 
Cc1cnc(Nc2ccc(S(N)(=O)=O)cc2)nc1Nc1ccc(OCC(=O)N(C)C)c(Cl)c1 [Compound I-134, N2-(4-Aminosulfonylphenyl)-N4-(3-chloro-4-dimethylaminocarbonylmethoxyphenyl)-5-methyl-2,4-pyrimidinediamine] | 510 nM | 178 nM |  | 
Cc1cnc(Nc2cccc(S(N)(=O)=O)c2)nc1Nc1ccc(OCC(=O)N(C)C)c(Cl)c1 [Compound I-135, N2-(3-Aminosulfonylphenyl)-N4-(3-chloro-4-dimethylaminocarbonylmethoxyphenyl)-5-methyl-2,4-pyrimidinediamine] | 104 nM | 112 nM |  | 
Cc1ccc(Nc2ncc(C)c(Nc3ccc(OCC(=O)N(C)C)c(Cl)c3)n2)cc1S(N)(=O)=O [Compound I-136, N2-(3-Aminosulfonyl-4-methylphenyl)-N4-(3-chloro-4-dimethylaminocarbonylmethoxyphenyl)-5-methyl-2,4-pyrimidinediamine] | 196 nM | 132 nM |  | 
Cc1cnc(Nc2ccc(S(N)(=O)=O)cc2)nc1Nc1ccc(OCC(=O)N(C)C)c(F)c1 [Compound I-137, N2-(4-Aminosulfonylphenyl)-N4-(4-dimethylaminocarbonylmethoxy-3-fluorophenyl)-5-methyl-2,4-pyrimidinediamine] | 1100 nM | 387 nM |  | 
Cc1cnc(Nc2cccc(S(N)(=O)=O)c2)nc1Nc1ccc(OCC(=O)N(C)C)c(F)c1 [Compound I-138, N2-(3-Aminosulfonylphenyl)-N4-(4-dimethylaminocarbonylmethoxy-3-fluorophenyl)-5-methyl-2,4-pyrimidinediamine] | 223 nM | 461 nM |  | 
Cc1ccc(Nc2ncc(C)c(Nc3ccc(OCC(=O)N(C)C)c(F)c3)n2)cc1S(N)(=O)=O [Compound I-139, N2-(3-Aminosulfonyl-4-methylphenyl)-N4-(4-dimethylaminocarbonylmethoxy-3-fluorophenyl)-5-methyl-2,4-pyrimidinediamine] | 240 nM | 375 nM |  | 
Cc1cnc(Nc2ccc(Cl)c(S(N)(=O)=O)c2)nc1Nc1ccc(OCC(=O)N(C)C)c(Cl)c1 [Compound I-141, N2-(3-Aminosulfonyl-4-chlorophenyl)-N4-(3-chloro-4-dimethylaminocarbonylmethoxyphenyl)-5-methyl-2,4-pyrimidinediamine] | 669 nM | 162 nM |  | 
CNC(=O)COc1ccc(Nc2nc(Nc3ccc(S(N)(=O)=O)cc3)ncc2C)cc1Cl [Compound I-149, N2-(4-Aminosulfonylphenyl)-N4-(3-chloro-4-methylaminocarbonylmethoxyphenyl)-5-methyl-2,4-pyrimidinediamine] | 197 nM | 161 nM |  | 
CNC(=O)COc1ccc(Nc2nc(Nc3cccc(S(N)(=O)=O)c3)ncc2C)cc1Cl [Compound I-150, N2-(3-Aminosulfonylphenyl)-N4-(3-chloro-4-methylaminocarbonylmethoxyphenyl)-5-methyl-2,4-pyrimidinediamine] | 68.1 nM | 65.7 nM |  | 
CNC(=O)COc1ccc(Nc2nc(Nc3cccc(S(N)(=O)=O)c3)ncc2C)cc1F [Compound I-155, N2-(3-Aminosulfonylphenyl)-N4-(3-fluoro-4-methylaminocarbonylmethoxyphenyl)-5-methyl-2,4-pyrimidinediamine] | 99.3 nM | 118 nM |  | 
CNC(=O)COc1ccc(Nc2nc(Nc3ccc(C)c(S(N)(=O)=O)c3)ncc2C)cc1F [Compound I-156, N2-(3-Aminosulfonyl-4-methylphenyl)-N4-(3-fluoro-4-methylaminocarbonylmethoxyphenyl)-5-methyl-2,4-pyrimidinediamine] | 142 nM | 65.5 nM |  | 
C=CCNC(=O)COc1ccc(Nc2nc(Nc3cccc(S(N)(=O)=O)c3)ncc2F)cc1 [Compound I-158, N4-(4-Allylaminocarbonylmethoxyphenyl)-N2-(3-aminosulfonylphenyl)-5-fluoro-2,4-pyrimidinediamine] | 445 nM | 297 nM |  | 
C=CCNC(=O)COc1ccc(Nc2nc(Nc3ccc(C)c(S(N)(=O)=O)c3)ncc2F)cc1 [Compound I-159, N4-(4-Allylaminocarbonylmethoxyphenyl)-N2-(3-aminosulfonyl-4-methylphenyl)-5-fluoro-2,4-pyrimidinediamine] | 539 nM | 338 nM |  | 
Cc1ccc(Nc2ncc(F)c(Nc3ccc(OCc4cccnc4)cc3)n2)cc1S(N)(=O)=O [Compound I-178, N2-(3-Aminosulfonyl-4-methylphenyl)-5-fluoro-N4-[4-(3-pyridylmethoxy)phenyl]-2,4-pyrimidinediamine] | 29.3 nM | 23.5 nM |  | 
Cc1ccc(Nc2nc(Nc3cccc(S(N)(=O)=O)c3)ncc2F)cc1OCCN1CCOCC1 [Compound I-203, N2-(3-Aminosulfonylphenyl)-5-fluoro-N4-[4-methyl-3-(2-morpholinoethyloxy)phenyl]-2,4-pyrimidinediamine] | 684 nM | 265 nM |  | 
Cc1ccc(Nc2nc(Nc3ccc(C)c(S(N)(=O)=O)c3)ncc2F)cc1OCCN1CCOCC1 [Compound I-204, N2-(3-Aminosulfonyl-4-methylphenyl)-5-fluoro-N4-[4-methyl-3-(2-morpholinoethyloxy)phenyl]2,4-pyrimidinediamine] | 1650 nM | 256 nM |  | 
NS(=O)(=O)c1ccc(Nc2ncc(F)c(Nc3ccc(OCCN4CCOCC4)cc3)n2)cc1 [Compound I-205, N2-(4-Aminosulfonylphenyl)-5-fluoro-N4-[4-(2-morpholinoethyloxy)phenyl)-2,4-pyrimidinediamine] | 1860 nM | 315 nM |  | 
Cc1cc(COc2ccc(Nc3nc(Nc4cccc(S(N)(=O)=O)c4)ncc3F)cc2)no1 [Compound I-230, N2-(3-Aminosulfonylphenyl)-5-fluoro-N4-[4-(5-methylisoxazol-3-yl)methyleneoxyphenyl]-2,4-pyrimidinediamine] | 69.2 nM | 84.3 nM |  | 
Cc1cc(COc2ccc(Nc3nc(Nc4cccc(S(=O)(=O)NCc5oc(=O)oc5C)c4)ncc3F)cc2)no1 [Compound I-247, N2-{3-[(N-5-Methyl-1,3-dioxolene-2-one-4-yl)methylene]aminosulfonylphenyl}-5-fluoro-N4-[4-(5-methylisoxazol-3-yl)methyleneoxyphenyl]-2,4-pyrimidinediamine] | 119 nM | 225 nM |  | 
Cc1nnc(COc2ccc(Nc3nc(Nc4ccc(C)c(S(N)(=O)=O)c4)ncc3F)cc2)o1 [Compound I-279, N2-(3-Aminosulfonyl-4-methylphenyl)-5-fluoro-N4-[4-(5-methyl-1,3,4-oxadiazol-2-yl)methoxyphenyl]-2,4-pyrimidinediamine] | 167 nM | 123 nM |  | 
Cc1ccc(Nc2ncc(F)c(Nc3cnc4c(c3)OC(C)(C)C(=O)N4CC#N)n2)cc1S(N)(=O)=O [Compound V-14, N2-(3-Aminosulfonyl-4-methylphenyl)-N4-[2,2-dimethyl-3-oxo-4-cyanomethyl-5-pyrid[1,4]oxazin-7-yl]-5-fluoro-2,4-pyrimidinediamine] |  |  | 2590 nM | 197 nM
